Measurements from the supplement of paper PMC11451515.

Test system: NOMO1
Assay: cell viability relative to DMSO control; higher = less cytotoxic
Conditions: 48 h
Summary of the method: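 Viability values are per-plate percentages of DMSO wells, with background from cell-free wells. Library compounds in DMSO were pin-dosed, in an 11-point threefold series from 47 μM to 0.79 nM, onto NOMO1 or SEM (500 cells/well) or P12-Ichikawa (1000 cells/well) leukemia cells in 1536-well plates (5 μl). Those cells had been adapted for at least four passages in each medium, and CellTiter-Glo One luminescence was read after 48 h at 37°C.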

[1] = HPLM + 10% dialyzed FBS, 0.000781 µM
[2] = HPLM + 10% dialyzed FBS, 0.00234 µM
[3] = HPLM + 10% dialyzed FBS, 0.00702 µM
[4] = HPLM + 10% dialyzed FBS, 0.0211 µM
[5] = HPLM + 10% dialyzed FBS, 0.0632 µM
[6] = HPLM + 10% dialyzed FBS, 0.19 µM
[7] = HPLM + 10% dialyzed FBS, 0.569 µM
[8] = HPLM + 10% dialyzed FBS, 1.71 µM
[9] = HPLM + 10% dialyzed FBS, 5.12 µM
[10] = HPLM + 10% dialyzed FBS, 15.4 µM
[11] = HPLM + 10% dialyzed FBS, 46.1 µM
[12] = RPMI 5 mM glucose + 10% FBS, 0.000781 µM
[13] = RPMI 5 mM glucose + 10% FBS, 0.00234 µM
[14] = RPMI 5 mM glucose + 10% FBS, 0.00702 µM
[15] = RPMI 5 mM glucose + 10% FBS, 0.0211 µM
[16] = RPMI 5 mM glucose + 10% FBS, 0.0632 µM
[17] = RPMI 5 mM glucose + 10% FBS, 0.19 µM
[18] = RPMI 5 mM glucose + 10% FBS, 0.569 µM
[19] = RPMI 5 mM glucose + 10% FBS, 1.71 µM
[20] = RPMI 5 mM glucose + 10% FBS, 5.12 µM
[21] = RPMI 5 mM glucose + 10% FBS, 15.4 µM
[22] = RPMI 5 mM glucose + 10% FBS, 46.1 µM
[23] = RPMI 5 mM glucose + 10% dialyzed FBS, 0.000781 µM
[24] = RPMI 5 mM glucose + 10% dialyzed FBS, 0.00234 µM
[25] = RPMI 5 mM glucose + 10% dialyzed FBS, 0.00702 µM
[26] = RPMI 5 mM glucose + 10% dialyzed FBS, 0.0211 µM
[27] = RPMI 5 mM glucose + 10% dialyzed FBS, 0.0632 µM
[28] = RPMI 5 mM glucose + 10% dialyzed FBS, 0.19 µM
[29] = RPMI 5 mM glucose + 10% dialyzed FBS, 0.569 µM
[30] = RPMI 5 mM glucose + 10% dialyzed FBS, 1.71 µM
[31] = RPMI 5 mM glucose + 10% dialyzed FBS, 5.12 µM
[32] = RPMI 5 mM glucose + 10% dialyzed FBS, 15.4 µM
[33] = RPMI 5 mM glucose + 10% dialyzed FBS, 46.1 µM

| SMILES | cell viability [1] [%] | cell viability [2] [%] | cell viability [3] [%] | cell viability [4] [%] | cell viability [5] [%] | cell viability [6] [%] | cell viability [7] [%] | cell viability [8] [%] | cell viability [9] [%] | cell viability [10] [%] | cell viability [11] [%] | cell viability [12] [%] | cell viability [13] [%] | cell viability [14] [%] | cell viability [15] [%] | cell viability [16] [%] | cell viability [17] [%] | cell viability [18] [%] | cell viability [19] [%] | cell viability [20] [%] | cell viability [21] [%] | cell viability [22] [%] | cell viability [23] [%] | cell viability [24] [%] | cell viability [25] [%] | cell viability [26] [%] | cell viability [27] [%] | cell viability [28] [%] | cell viability [29] [%] | cell viability [30] [%] | cell viability [31] [%] | cell viability [32] [%] | cell viability [33] [%] |
| --- | --- | --- | --- | --- | --- | --- | --- | --- | --- | --- | --- | --- | --- | --- | --- | --- | --- | --- | --- | --- | --- | --- | --- | --- | --- | --- | --- | --- | --- | --- | --- | --- | --- |
| CC[C@@H](C)[C@H](NC(=O)[C@H](CC1CCCCC1)NC(=O)c1ccno1)C(=O)N1CCC2(CCc3ccccc32)CC1 | 85.9 | 90.6 | 86.1 | 78.9 | 108 | 97.3 | 75.9 | 66.1 | 79.2 | 81.7 | 69.9 | 80.1 | 88.6 | 81.1 | 79.9 | 77.1 | 78.3 | 89.1 | 81.9 | 84.6 | 74.4 | 72.2 | 84 | 85.4 | 84 | 77.9 | 87.6 | 82.4 | 76.2 | 69.8 | 82.6 | 73.7 | 83.2 |
| CCCCCCCN(CC)CCCC(O)c1ccc(NS(C)(=O)=O)cc1.CCCCCCCN(CC)CCCC(O)c1ccc(NS(C)(=O)=O)cc1.O=C(O)/C=C/C(=O)O (configuration not stated) | 117 | 112 | 126 | 126 | 114 | 126 | 127 | 108 | 122 | 112 | 102 | 94.3 | 108 | 105 | 99.8 | 107 | 106 | 97.1 | 107 | 101 | 107 | 110 | 110 | 114 | 107 | 100 | 99.9 | 124 | 103 | 109 | 114 | 112 | 90.3 |
| C=C1C(=O)O[C@@H]2[C@H]3O[C@]3(C)CC/C=C(\C)CC[C@@H]12 | 110 | 117 | 110 | 115 | 117 | 142 | 114 | 93.8 | 15.9 | 14.9 | 3.29 | 115 | 121 | 116 | 113 | 112 | 108 | 106 | 102 | 46.4 | 5.46 | 3.54 | 98.1 | 103 | 104 | 113 | 114 | 124 | 112 | 99.1 | 62.3 | 6.1 | 3.17 |
| CCOC(=O)c1c(/C(C#N)=C\N)c2ccc(Cl)c(Cl)c2n1C | 89.9 | 95.7 | 94.3 | 95 | 72.6 | 101 | 91.1 | 87.2 | 94 | 95.8 | 103 | 81.9 | 80.7 | 82.5 | 92 | 80.4 | 77.3 | 79.7 | 88 | 80.8 | 78.6 | 95.3 | 90.7 | 90.1 | 87.7 | 91.4 | 79.2 | 77 | 86 | 86.8 | 87.2 | 77.6 | 101 |
